Measured values published in publication PMC7865276, “Chemical Constituents of the Bulbs of Scilla peruviana and Their Pancreatic Lipase Inhibitory Activity” (International Journal of Molecular Sciences, 2021).
Each block holds one compound with its values, some of them ahead of it.

Columns and labels:
[1] = target: T1, lipase from porcine pancreas, TYPE II (Sus scrofa, UniProt P00591); test: pancreatic lipase inhibitory activity (Lipase Kit S, BALB substrate); type: biochemical; conditions: for pancreatic lipase inhibitory activity (in words): in vitro, 0.45, 0.90 and 4.5 mM
T1 construct: lipase from porcine pancreas, TYPE II; purchased Sigma-Aldrich; host or cells: porcine pancreas (tissue preparation)
T1 sequence (P00591 1-450): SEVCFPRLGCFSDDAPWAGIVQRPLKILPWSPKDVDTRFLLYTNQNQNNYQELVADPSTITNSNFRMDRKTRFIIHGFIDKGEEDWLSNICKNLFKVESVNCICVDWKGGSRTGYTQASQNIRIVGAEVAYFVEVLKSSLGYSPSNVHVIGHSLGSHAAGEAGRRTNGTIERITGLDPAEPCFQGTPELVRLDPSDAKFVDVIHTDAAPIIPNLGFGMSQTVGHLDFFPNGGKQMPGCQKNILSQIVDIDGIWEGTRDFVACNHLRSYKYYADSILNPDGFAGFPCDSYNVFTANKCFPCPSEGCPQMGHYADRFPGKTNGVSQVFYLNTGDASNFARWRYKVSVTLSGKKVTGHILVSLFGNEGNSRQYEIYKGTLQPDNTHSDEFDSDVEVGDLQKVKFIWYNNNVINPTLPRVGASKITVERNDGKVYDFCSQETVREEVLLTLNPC
Protocol: The pancreatic lipase activity of each test sample was measured by a modified method using a commercially available kit (Lipase Kit S, Dainippon Pharmaceutical). The purities of test samples were confirmed by HPLC analysis (Figure S6 in Supplementary Materials). Cetilistat was used as a positive control at 0.1, 1.0, and 10 μM. Test sample was dissolved in EtOH–H2O (1:1) and diluted to concentrations of 0.45, 0.90, and 4.5 mM, respectively. Lipase (lipase from porcine pancreas, TYPE II, 100–500 units/mg) was purchased from Sigma-Aldrich. Briefly, test sample was mixed with enzyme buffer, and incubated for 5 min at 30 °C. After incubation, 2,3-dimercapto-1-propanol tributyrate (BALB) as substrate was added and the enzyme reaction was proceeded for 30 min at 30 °C. Lipase activity was determined by measuring the absorbance of the resulting 5-thio-2-nitrobenzoate anion at 412 nm using a microplate reader. The inhibition rate was calculated by the following formula: Inhibition rate (%) = [1 − (ΔAsample − ΔAblank)/(ΔAcontrol − ΔAblank)] × 100. The inhibitory concentration (IC50) was calculated by log-Probit analysis.

pancreatic lipase = test system: pancreatic lipase; set-up: method as in PMID 25389058; conditions: cited from earlier work
[2] = test system: cyclic adenosine monophosphatase (cAMP) phosphodiesterase; set-up: method as in PMID 8149459, doi:10.1246/cl.1992.1863; conditions: cited from earlier work
ddY mice = test: serum TG levels in intralipid (soybean oil)-loaded mice; type: in vivo; conditions: for serum TG levels: 15 min before intralipid loading, 120 min after intralipid, mean ± S.E.M., n = 5
Protocol: Male ddY mice, 5 weeks old, were purchased from Japan Laboratory Animals and maintained in the animal facility of the Tokyo University of Pharmacy and Life Sciences. The animals were housed in cages under controlled temperature (23 ± 2 °C) and a 12 h light-dark cycle. The mice were allowed free access to breeding food and water. All experiments were approved by the Tokyo University of Pharmacy and Life Sciences Animal Use Committee (approval number: P17-84, date of approval: 24 April 2017).
After 5 weeks, mice were fasted overnight and randomly divided into five groups (n = 5). The body weight of each mouse was measured (24.0–30.7 g/body). 0.5% Carboxymethyl cellulose (CMC; Wako Pure Chemical Industries), cetilistat (Tokyo Kasei, purity > 98.0%; 180 mg/kg), or compound 6 (150 or 300 mg/kg) were prepared for test samples and the intralipid (soybean oil 20% emulsion, 20 mL/kg, Sigma-Aldrich) was used for the high-fat diet. Single dose of 0.5% CMC, cetilistat, and compound 6 (150 or 300 mg/kg) were orally administered to mice in each group (n = 5) 15 min before the intralipid loading. Blood samples were collected from the abdominal vena cava 120 min after the intralipid-loaded treatment and centrifuged (700× g for 10 min) to obtain serum samples. The TG levels in serum were measured using a commercially available kit (Wako Triglyceride E-Test kit, Wako Pure Chemical Industries).

mice = test system: mice; set-up: method as in earlier work; conditions: oral administration; cited from earlier work
[3] = mean ± S.E.M. of three experiments in triplicate, tested at 0.45, 0.90, 4.5 mM

Compound: CCC(=O)[C@@H]1C[C@@H](C)[C@]2(CC[C@@]3(C)C4=C(CC[C@@]32C)[C@@]2(C)CC[C@H](O[C@@H]3O[C@H](CO[C@@H]5OC[C@H](O)[C@H](O)[C@H]5O[C@@H]5O[C@H](CO)[C@@H](O)[C@H](O[C@@H]6O[C@H](CO)[C@@H](O)[C@H](O)[C@H]6O)[C@H]5O[C@@H]5O[C@@H](C)[C@H](O)[C@@H](O)[C@H]5O)[C@@H](O)[C@H](O)[C@H]3O)[C@](C)(CO)[C@@H]2CC4)O1 [Compound 9, 15-deoxy-eucosterol3β-[O-β-D-glucopyranosyl-(1→3)-O-[α-L-rhamnopyranosyl-(1→2)]-β-D-glucopyranosyl-(1→2)-O-α-L-arabinopyranosyl-(1→6)-O-β-D-glucopyranoside]]
IC50 [1, 3]: 910 ± 23 µM

Compound: COC(=O)/C(C)=C/[C@H]1[C@H](O)O[C@H]2C[C@@]3(C)C4=C(CC[C@]3(C)[C@@]2(O)[C@@H]1C)[C@@]1(C)CC[C@H](O[C@@H]2O[C@H](CO)[C@@H](O)[C@H](O)[C@H]2O[C@@H]2O[C@H](CO)[C@@H](O)[C@H](O)[C@H]2O[C@@H]2O[C@@H](C)[C@H](O)[C@@H](O)[C@H]2O)[C@](C)(CO)[C@@H]1CC4 [Compound 5, peruvianoside B]
IC50 [1, 3]: 1400 ± 35 µM

Compound: CC(C)=CCCC(C(=O)O)C1CCC2(C)C3CCC4C(C)(CCC(O)C4(C)C)C3=CCC12C (stereo not drawn) [3β-Hydroxylanosta 9,24-dien-21-oic acid]
pancreatic lipase inhibition (in words) (pancreatic lipase): inhibit the pancreatic lipase activity

Compound: scillasaponin B
cAMP phosphodiesterase inhibitory activity (in words) [2]: show cyclic adenosine monophosphatase (cAMP) phosphodiesterase inhibitory activity

Compound: COC(=O)/C(C)=C/[C@H]1[C@H](O)O[C@H]2C[C@@]3(C)C4=C(CC[C@]3(C)[C@@]2(O)[C@@H]1C)[C@@]1(C)CC[C@H](O[C@@H]2O[C@H](CO)[C@@H](O)[C@H](O)[C@H]2O[C@@H]2O[C@H](CO)[C@@H](O)[C@H](O)[C@H]2O[C@@H]2O[C@@H](C)[C@H](O)[C@@H](O)[C@H]2O)C(C)(C)[C@@H]1CC4 [Compound 4, peruvianoside A]
IC50 [1, 3]: 1420 ± 40 µM
cAMP phosphodiesterase inhibitory activity (in words) [2]: show cyclic adenosine monophosphatase (cAMP) phosphodiesterase inhibitory activity

Compound: CC1CC2(CC(C)C3(CCC4(C)C5=C(CCC43C)C3(C)CCC(OC4OC(COC6OCC(O)C(O)C6OC6OC(CO)C(O)C(O)C6OC6OC(C)C(O)C(O)C6O)C(O)C(O)C4O)C(C)(CO)C3CC5)O2)OC1=O [Compound 6, (23S,25R)-3β,31-dihydroxy-17α,23-epoxy-5α-lanost-8-en-23,26-olactone3β-O-[O-α-L-rhamnopyranosyl-(1→2)-O-β-D-gluco-pyranosyl-(1→2)-O-α-L-arabinopyranosyl-(1→6)-O-β-D-glucopyranoside]]
pancreatic lipase inhibitory activity (in words) [1]: significant pancreatic lipase inhibitory activity in a concentration-dependent manner
IC50 [1, 3]: 810 ± 29 µM
serum TG levels (ddY mice; 300 mg/kg single oral dose): 90.9 ± 16.2 mg/dL
effect on serum triglyceride levels (in words) (ddY mice; oral, 150 or 300 mg/kg, soybean oil-loaded mice): reduced serum triglyceride levels in a dose-dependent manner

Compound: CCC(=O)[C@@H]1C[C@@H](C)[C@]2(CC[C@@]3(C)C4=C(CC[C@@]32C)[C@@]2(C)CC[C@H](O[C@@H]3O[C@H](CO[C@@H]5OC[C@H](O)[C@H](O)[C@H]5O[C@@H]5O[C@H](CO)[C@@H](O)[C@H](O[C@@H]6O[C@H](CO)[C@@H](O)[C@H](O)[C@H]6O)[C@H]5O[C@@H]5O[C@@H](C)[C@H](O)[C@@H](O)[C@H]5O)[C@@H](O)[C@H](O)[C@H]3O)C(CO)(CO)[C@@H]2CC4)O1 [Compound 10, 15-deoxy-30-hydroxyeucosterol3β-[O-β-D-glucopyranosyl-(1→3)-O-[α-L-rhamnopyranosyl-(1→2)]-β-D-glucopyranosyl-(1→2)-O-α-L-arabinopyranosyl-(1→6)-O-β-D-glucopyranoside]]
IC50 [1, 3]: 1130 ± 62 µM

Compound: C[C@@H]1O[C@@H](O[C@H]2[C@H](O[C@H]3[C@H](OC[C@H]4O[C@@H](O[C@H]5CC[C@]6(C)C7=C(CC[C@H]6[C@@]5(C)CO)[C@]5(C)CC[C@@]6(OC(=O)C[C@H]6C)[C@@]5(C)CC7)[C@H](O)[C@@H](O)[C@@H]4O)OC[C@H](O)[C@@H]3O)O[C@H](CO)[C@@H](O)[C@@H]2O[C@@H]2O[C@H](CO)[C@@H](O)[C@H](O)[C@H]2O)[C@H](O)[C@H](O)[C@H]1O [Compound 11, scillanostaside G]
pancreatic lipase inhibitory activity (in words) [1]: inhibited the pancreatic lipase activity in an inverted dose-dependent manner
IC50 [1, 3]: > 4500 µM

Compound: CC1CC2(CC(C)C3(CCC4(C)C5=C(CCC43C)C3(C)CCC(OC4OC(COC6OCC(O)C(O)C6OC6OC(CO)C(O)C(O)C6OC6OC(C)C(O)C(O)C6O)C(O)C(O)C4O)C(CO)(CO)C3CC5)O2)OC1=O [Compound 7, (23S,25R)-3β,30,31-trihydroxy-17α,23-epoxy-5α-lanost-5-en-23,26-olactone3-O-[O-α-L-rhamno-pyranosyl-(1→2)-O-β-D-glucopyranosyl-(1→2)-O-α-L-arabinopyranosyl-(1→6)-O-β-D-glucopyranoside]]
IC50 [1, 3]: 1100 ± 15 µM

IC50 ([1]; positive control, tested at 0.1, 1.0, 10 μM, mean ± S.E.M.): 1.43 ± 0.052 µM
Compound: CCCCCCCCCCCCCCCCOc1nc2ccc(C)cc2c(=O)o1 [Cetilistat, reference compound]
serum TG levels (ddY mice; 180 mg/kg oral): 130.2 ± 23.4 mg/dL

Compound: C=C1C(O)CCC2C1(C)CCC1C2(C)CCC2(C)C3C(C(C)C)CCC3(C)CCC12C (stereo not drawn) [cymbopogonol]
effect on serum TG levels (in words) (mice): reduced serum TG levels in mice

Compound: COC(=O)/C(C)=C/[C@H]1[C@H](OC)O[C@H]2C[C@@]3(C)C4=C(CC[C@]3(C)[C@@]2(O)[C@@H]1C)[C@@]1(C)CC[C@H](O[C@@H]2O[C@H](CO)[C@@H](O)[C@H](O)[C@H]2O[C@@H]2O[C@H](CO)[C@@H](O)[C@H](O)[C@H]2O[C@@H]2O[C@@H](C)[C@H](O)[C@@H](O)[C@H]2O)C(C)(C)[C@@H]1CC4 [Compound 2, 23α-methyl-peruvianoside A]
pancreatic lipase inhibitory activity (in words) [1]: significant pancreatic lipase inhibitory activity in a concentration-dependent manner
IC50 [1, 3]: 840 ± 29 µM

Compound: COC(=O)/C(C)=C/[C@H]1[C@@H](OC)O[C@H]2C[C@@]3(C)C4=C(CC[C@]3(C)[C@@]2(O)[C@@H]1C)[C@@]1(C)CC[C@H](O[C@@H]2O[C@H](CO)[C@@H](O)[C@H](O)[C@H]2O[C@@H]2O[C@H](CO)[C@@H](O)[C@H](O)[C@H]2O[C@@H]2O[C@@H](C)[C@H](O)[C@@H](O)[C@H]2O)C(C)(C)[C@@H]1CC4 [Compound 3, 23β-methyl-peruvianoside A]
pancreatic lipase inhibitory activity (in words) [1]: significant pancreatic lipase inhibitory activity in a concentration-dependent manner
IC50 [1, 3]: 590 ± 20 µM
